For the assay, the system named is Cyclin B1, CDK1, BubR1, Aurora B. The experiment in a line: Western blot, cell-cycle related proteins in HeLa cells. It is filed as cell-based, human. To be noted: HeLa, 0.21, 0.42 and 1 μM, 24 h. The protocol: Western blot analysis was used to investigate protein expression levels. It was adopted by Suresh Kumar et al.. Briefly, 1 × 10^5 cells/flask was seeded and treated with MBIC in a dose-dependent manner for 24 h. Cells treated with colchicine and nocodazole served as positive controls. Cells were collected and lysed in RIPA buffer supplemented with a 10 μl protease inhibitor cocktail, sodium orthovanadate, and PMSF (Santa Cruz, USA). The lysate was stored at −80 °C until further use. A 40 μg of sample protein was resolved on 10 % SDS-PAGE and transferred to a polyvinylidene difluoride (PVDF) membrane (Merck Millipore, USA). The membrane was blocked in 5 % BSA for 1 h at room temperature following an overnight incubation at 4 °C with the following primary antibodies: Anti-Cyclin B1, anti-CDK1, anti-BubR1, anti-Aurora B, anti-cleaved PARP, anti-cleaved caspase-3/7/9, anti-Bcl-2 and anti-Bax (1:1000) (Cell Signaling Technology (CST), USA), mouse anti β-actin (1:40000) (Sigma-Aldrich, USA) antibodies.
Membranes were washed with 1X TBS-T prior to incubating with HRP-conjugated goat anti-mouse or anti-rabbit secondary antibodies for 2 h at room temperature. Membranes were washed 3 times with 1X TBS-T to remove excess antibodies before the proteins-antibody complex was detected with Amersham ECL prime western blotting detection reagent (GE Healthcare, USA). Western blot images were quantified and processed by ImageJ software (NIH, USA).

This is an account of results in publication PMC4815073, “Targeting of tubulin polymerization and induction of mitotic blockage by Methyl 2-(5-fluoro-2-hydroxyphenyl)-1H-benzo[d]imidazole-5-carboxylate (MBIC) in human cervical cancer HeLa cell” (Journal of Experimental & Clinical Cancer Research : CR, 2016).

In the case of `COC(=O)c1ccc2[nH]c(-c3cc(F)ccc3O)nc2c1` [MBIC, Methyl 2-(5-fluoro-2-hydroxyphenyl)-1H-benzo[d]imidazole-5-carboxylate], the “Aurora B protein level (Western blot)” value is “down-regulated”, the “BubR1 protein level (Western blot)” value is “up-regulated”, the “CDK1 protein level (Western blot)” value is listed as “up-regulation” and the “Cyclin B1 protein level (Western blot)” value was “up-regulation”.
